{"source": "patent US7812117B2", "about": "“Vasostatin as marrow protectant” (The United States of America as represented by the …, priority 1998, dated 2010)", "key": {"murine bone marrow cells [1]": {"system": "murine bone marrow cells", "experiment": "Murine bone marrow cell proliferation in vitro ([3H] thymidine incorporation)", "conditions": "cisplatinum 25 μM, regardless the addition of vaso"}, "murine bone marrow cells [2]": {"system": "murine bone marrow cells", "conditions": "C57BL/6NCR, mouse, 77 nM"}}, "data": [{"smiles": "N.N.[Cl][Pt][Cl]", "note": "[Cisplatinum, cis-diammine-dichloroplatinum II, reference compound]", "values": [{"measurement": "bone marrow cell proliferation induced by IL-3 at the highest dose of cisplatinum", "setting": "murine bone marrow cells [1]", "value": "minimal"}]}, {"smiles": "COc1cc([C@@H]2c3cc4c(cc3[C@@H](O[C@@H]3O[C@@H]5CO[C@@H](C)O[C@H]5[C@H](O)[C@H]3O)[C@H]3COC(=O)[C@H]23)OCO4)cc(OC)c1O", "note": "[Etoposide, reference compound]", "values": [{"measurement": "reduction of bone marrow cell proliferation", "setting": "murine bone marrow cells [2]", "value": "1.5-2.7 fold"}]}]}
